Experiments:
[1] = test system: Clostridium acetobutylicum; assay: Fermentation product formation by Clostridium acetobutylicum grown on different substrates; assay type: cell-based; settings: organism grown on the named substrate
Protocol: Experimentally, mixtures of any of galacturonate and galacturonate polymers with glucose are fed to Clostridium acetobutylicum. It was observed that the organism co-utilized the substrates. […] Bacterial culture conditions and strains have been previously published. […] Clostridium acetobutylicum strain ATCC 824 was obtained from ATCC and cultured using company protocol at 37° C. into Clostridial growth medium or CGM containing 0.75 g KH2PO4, 0.75 g K2HPO4, 1.0 g NaCl, 0.017 g MnSO4.5H2O, 0.70 g MgSO4.7H2O, 0.01 g FeSO4.7H2O, 2.0 g […], 5.0 g yeast extract, 2.0 g (NH4)2SO4, and 0.5% final concentration of desired carbohydrate-D-glucose, D-galacturonic acid, D-gluconic acid-at pH 6.5. Active cultures from initial growth stock were added to potato glucose medium to be maintained and stored as a spore solution. Potato glucose medium or PGM contains per liter of H2O-150 g grated fresh potato, 10 g D-glucose, 0.5 g (NH4)SO4, and 3 g CaCO3. The medium was boiled for 1 hour and strained through gauze before sterilization and use for culture. Spore solution was activated for culturing through a heat shock at 80° C. for 9 minutes. Shocked spore solution was added to CGM containing the feed stock of choice and grown to late log of 0.8 at optical density of 600 nm (OD600) at 37° C. Theses cultures were then used to perform antibiotic sensitivity experiments.

[2] = test system: Clostridium acetobutylicum; assay: Substrate concentration over time during co-fed fermentation (FIG. 4); assay type: cell-based
Description: FIG. 4 is a graph illustrating the uptake of individual oxidized sugars mixed for co-feeding during a fermentation process of Clostridial acetobutylicum; FIG. 4, with reference to FIGS. 1 through 3, is a graph illustrating the concentration of various feedstock during a fermentation process. […] The co-utilization of any of galacturonate and galacturonate polymers with glucose could be used to control the metabolic state of the cells by altering the production of reduced electron carriers such as NADH and/or NADPH. This can allow for fine-tuning production of chemicals. The overall trend of the concentration over time shown in FIG. 4 for galacturonic (gal) acid and glucose (glu) is generally the same; i.e., a gradual decrease in the concentration over time. For example, the concentration of the galacturonic acid is approximately 7.5 at time 0 with a gradual decline in concentration to approximately 4 at approximately 3 hours, followed by a greater decline in concentration resulting in a 0 concentration at approximately 7 hours.

`O=C[C@H](O)[C@@H](O)[C@@H](O)[C@H](O)C(=O)O` [galacturonate, D-galacturonic acid] was tested, and the acetate produced [1] was “approximately 23.6 mM”, the butyrate produced [1] was “approximately 0.6 mM” and the “concentration of feedstock during fermentation” value (shortened to “concentration”) ([2]; FIG. 4, approximately 3 hours) was “approximately 4”. For the same compound, the “concentration” value ([2]; FIG. 4, approximately 7 hours) was 0 and the “concentration” value ([2]; FIG. 4, glucose/galacturonate co-feeding, time 0) was “approximately 7.5”.

Source: patent publication US20200370076A1, “USE OF GALACTURONATE AND OR GALACTURONATE POLYMERS IN CONJUNCTION WITH CARBOHYDRATES TO CONTROL METABOLIC STATE OF ORGANISMS” (Department of the Army, U.S. Army CCDC Army Research …, priority 2019, published 2020)
